According to ChEMBL document CHEMBL1127756 (Bioorg Med Chem Lett, 1994):
Numbered stars: 1 amine (or outer) side, 2 acyl side, 3 side chain; on linkers, the order of the positions; unused ones are H or OH. Square brackets hold non-standard residues; d marks the D form. Peptide text beside a SMILES is read from it. X1 = C/C=C/CC[C@H](N[*:1])C(=O)[*:2]; pGlu = O=C1CC[C@@H](C(=O)O)N1; Ahp(2) = CCCCC[C@H](N)C(=O)O

Key:
[1] = biological target: T1, Cholecystokinin receptor type A (Rattus norvegicus, UniProt P30551); assay: Concentration producing half-maximal inhibition of specific binding of [125I]Bolton-Hunter CCK-8 to Cholecystokinin type A receptor in the rat pancreas
T1 sequence (P30551 whole entry): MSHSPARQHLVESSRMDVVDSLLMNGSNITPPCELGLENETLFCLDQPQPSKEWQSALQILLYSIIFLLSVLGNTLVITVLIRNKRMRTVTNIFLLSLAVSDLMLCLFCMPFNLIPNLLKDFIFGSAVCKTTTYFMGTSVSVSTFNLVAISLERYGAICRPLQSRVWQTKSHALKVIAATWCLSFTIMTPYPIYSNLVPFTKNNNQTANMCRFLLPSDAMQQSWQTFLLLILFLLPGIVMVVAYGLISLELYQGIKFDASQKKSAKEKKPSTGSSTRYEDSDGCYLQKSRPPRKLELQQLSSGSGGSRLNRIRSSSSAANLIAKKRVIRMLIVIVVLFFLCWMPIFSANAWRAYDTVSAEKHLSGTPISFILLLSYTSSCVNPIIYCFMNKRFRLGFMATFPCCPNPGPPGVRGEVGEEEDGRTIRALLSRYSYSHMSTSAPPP

[2] = biological target: T2, Gastrin/cholecystokinin type B receptor (Mus musculus, UniProt P56481); assay: Concentration producing half-maximal inhibition of specific binding of [125I]Bolton-Hunter CCK-8 to Cholecystokinin type B receptor in the mouse cerebral cortex; type: tissue-based
T2 sequence (P56481 whole entry): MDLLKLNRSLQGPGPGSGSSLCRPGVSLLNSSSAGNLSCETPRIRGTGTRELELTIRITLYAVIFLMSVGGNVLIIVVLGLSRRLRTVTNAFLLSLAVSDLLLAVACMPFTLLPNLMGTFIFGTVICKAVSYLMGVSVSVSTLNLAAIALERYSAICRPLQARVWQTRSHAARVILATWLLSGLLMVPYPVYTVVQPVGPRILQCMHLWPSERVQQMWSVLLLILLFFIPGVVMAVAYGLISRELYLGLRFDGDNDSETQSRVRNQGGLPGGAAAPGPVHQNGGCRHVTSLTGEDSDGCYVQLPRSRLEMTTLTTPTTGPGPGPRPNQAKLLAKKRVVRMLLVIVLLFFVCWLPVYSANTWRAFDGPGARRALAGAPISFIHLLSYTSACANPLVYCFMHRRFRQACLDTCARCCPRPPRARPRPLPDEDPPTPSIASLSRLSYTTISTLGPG

Neuromedin-K receptor = biological target: T3, Neuromedin-K receptor (Cavia porcellus, UniProt P30098); assay: (§1) Concentration producing half-maximal inhibition of specific binding of [3H]senktide to Tachykinin receptor 3 in the guinea pig cerebral cortex; type: tissue-based
T3 sequence (P30098 whole entry): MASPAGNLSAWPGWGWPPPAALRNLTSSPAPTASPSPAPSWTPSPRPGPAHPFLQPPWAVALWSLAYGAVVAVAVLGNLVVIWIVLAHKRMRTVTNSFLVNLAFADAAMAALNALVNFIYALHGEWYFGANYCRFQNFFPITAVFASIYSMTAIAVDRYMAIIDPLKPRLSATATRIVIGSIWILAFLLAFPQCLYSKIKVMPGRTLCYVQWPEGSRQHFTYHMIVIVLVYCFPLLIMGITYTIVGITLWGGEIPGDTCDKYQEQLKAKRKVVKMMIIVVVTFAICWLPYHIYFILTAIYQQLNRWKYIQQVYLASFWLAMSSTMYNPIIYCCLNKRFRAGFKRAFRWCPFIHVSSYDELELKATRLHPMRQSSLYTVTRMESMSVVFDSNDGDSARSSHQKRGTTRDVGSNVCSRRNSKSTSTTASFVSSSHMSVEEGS

Substance-P receptor = Substance-P receptor (Cavia porcellus, UniProt P30547); assay: Concentration producing half-maximal inhibition of specific binding of. [125I]Bolton-Hunter Substance P to NK-1 receptors in the guinea pig cerebral cortex; type: tissue-based
Chain of Substance-P receptor (P30547 whole entry): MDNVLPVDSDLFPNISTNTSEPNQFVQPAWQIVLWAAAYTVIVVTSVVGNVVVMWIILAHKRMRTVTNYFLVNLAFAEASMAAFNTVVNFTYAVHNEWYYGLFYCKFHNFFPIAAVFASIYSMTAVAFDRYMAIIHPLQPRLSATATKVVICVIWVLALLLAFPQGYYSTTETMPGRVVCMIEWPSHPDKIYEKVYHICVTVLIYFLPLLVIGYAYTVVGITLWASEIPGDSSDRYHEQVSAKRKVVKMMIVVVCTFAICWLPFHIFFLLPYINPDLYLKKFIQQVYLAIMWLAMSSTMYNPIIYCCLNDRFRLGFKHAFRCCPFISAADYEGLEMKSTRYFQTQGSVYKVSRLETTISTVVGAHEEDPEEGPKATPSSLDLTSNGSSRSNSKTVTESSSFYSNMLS

Substance-K receptor = biological target: T4, Substance-K receptor (Mesocricetus auratus, UniProt P51144); assay: (§2) Concentration producing half-maximal inhibition of specific binding of. [125I]neurokinin A to NK-2 receptors in the hamster urinary bladder; type: single protein
T4 sequence (P51144 whole entry): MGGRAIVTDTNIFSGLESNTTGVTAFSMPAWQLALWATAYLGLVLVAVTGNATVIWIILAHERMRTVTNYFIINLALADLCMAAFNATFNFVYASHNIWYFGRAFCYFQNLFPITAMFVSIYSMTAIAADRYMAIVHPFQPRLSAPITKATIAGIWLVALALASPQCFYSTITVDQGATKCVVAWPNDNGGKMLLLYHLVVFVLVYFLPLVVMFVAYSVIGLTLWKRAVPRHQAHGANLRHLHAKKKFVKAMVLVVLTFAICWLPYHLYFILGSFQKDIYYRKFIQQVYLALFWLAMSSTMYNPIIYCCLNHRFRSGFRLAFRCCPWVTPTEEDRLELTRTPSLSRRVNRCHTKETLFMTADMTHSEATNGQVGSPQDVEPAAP

[3] = biological target: T5, Substance-K receptor (Mesocricetus auratus) (UniProt P51144); assay: as §2; settings: Cricetulus griseus
T5 sequence (whole entry): T4 sequence (P51144 whole entry)

[4] = biological target: T6, Neuromedin-K receptor (Cavia porcellus) (UniProt P30098); assay: as §1; type: tissue-based
T6 sequence (whole entry): T3 sequence (P30098 whole entry)

## C/C=C/CC[C@H](NC(=O)[C@@H](N)Cc1c[nH]c2ccccc12)C(=O)N[C@@H](CC(=O)O)C(=O)N[C@@H](Cc1ccccc1)C(N)=O
[1]
  IC50: 8160 nM
[2]
  IC50: 4.9 nM

## CCCCC[C@H](NC(=O)[C@H](CC(C)C)NC(=O)CNC(=O)[C@H](Cc1ccccc1)NC(=O)[C@H](Cc1ccccc1)NC(=O)[C@H](CCC(N)=O)NC(=O)[C@H](CCC(N)=O)NC(C)=O)C(N)=O (Ac-QQFFGL[Ahp(2)]-NH2)
Neuromedin-K receptor
  IC50: 533 nM
Substance-P receptor
  IC50: 44.7 nM
Substance-K receptor
  IC50: 637 nM

## C/C=C/CC[C@H](NC(=O)[C@H](CC(C)C)NC(=O)CNC(=O)[C@H](Cc1ccccc1)NC(=O)[C@H](Cc1ccccc1)NC(=O)[C@H](CCC(N)=O)NC(=O)[C@H](CCC(N)=O)NC(C)=O)C(N)=O (Ac-QQFFGL[X1]-NH2)
Neuromedin-K receptor
  IC50: 882 nM
Substance-P receptor
  IC50: 115 nM
Substance-K receptor
  IC50: 1370 nM

## CCCCC[C@H](NC(=O)[C@@H](N)Cc1c[nH]c2ccccc12)C(=O)N[C@@H](CC(=O)O)C(=O)N[C@@H](Cc1ccccc1)C(N)=O (H-W[Ahp(2)]DF-NH2)
[1]
  IC50: 8490 nM
[2]
  IC50: 2.83 nM

## CSCC[C@H](NC(=O)[C@H](CC(C)C)NC(=O)CNC(=O)[C@H](Cc1ccccc1)NC(=O)[C@H](Cc1ccccc1)NC(=O)[C@H](CCC(N)=O)NC(=O)[C@@H]1CCC(=O)N1)C(N)=O ([pGlu]QFFGLM-NH2)
Substance-P receptor
  IC50: 25.4 nM

## CCCCC[C@H](NC(=O)[C@H](CC(C)C)NC(=O)CNC(=O)[C@H](Cc1ccccc1)NC(=O)[C@H](Cc1ccccc1)NC(=O)[C@H](CCC(N)=O)NC(=O)[C@@H]1CCC(=O)N1)C(N)=O ([pGlu]QFFGL[Ahp(2)]-NH2)
[3]
  inhibition: 47%
Substance-P receptor
  IC50: 97 nM
[4]
  inhibition: 25%

## C/C=C/CC[C@H](NC(=O)[C@H](CC(C)C)NC(=O)CNC(=O)[C@H](Cc1ccccc1)NC(=O)[C@H](Cc1ccccc1)NC(=O)[C@H](CCC(N)=O)NC(=O)[C@@H]1CCC(=O)N1)C(N)=O ([pGlu]QFFGL[X1]-NH2)
Neuromedin-K receptor
  IC50: 1880 nM
Substance-P receptor
  IC50: 366 nM
Substance-K receptor
  IC50: 2900 nM

## CSCC[C@H](NC(=O)[C@@H](N)Cc1c[nH]c2ccccc12)C(=O)N[C@@H](CC(=O)O)C(=O)N[C@@H](Cc1ccccc1)C(N)=O [TETRAGASTRIN]
[1]
  IC50: 4250 nM

## Ac-QQFFGLM-NH2
Neuromedin-K receptor
  IC50: 276 nM
Substance-P receptor
  IC50: 29.5 nM
Substance-K receptor
  IC50: 1620 nM

## H-QQFFGLM-NH2
Neuromedin-K receptor
  IC50: 1130 nM
Substance-P receptor
  IC50: 49.6 nM
Substance-K receptor
  IC50: 3290 nM
